Measured values taken from ChEMBL document CHEMBL1614632, “Trend analysis of a database of intravenous pharmacokinetic parameters in humans for 670 drug compounds” (Drug Metab Dispos, 2008).

Key:
[1] = clinical; conditions: human, in vivo, iv, t1/2
[2] = clinical; conditions: human, in vivo, iv, CL
[3] = clinical; conditions: human, in vivo, iv, Vdss
[4] = clinical; conditions: human, in vivo, iv
[5] = clinical; conditions: human, in vivo, iv; remark: listed apart in the source

SMILES | half-life [1] | clearance [2] | Vd [3] | MRT [4] | fraction unbound [5]
CC(=O)O[C@H]1C(=O)[C@@]2(C)[C@H]([C@H](OC(=O)c3ccccc3)[C@]3(O)C[C@H](OC(=O)[C@H](O)[C@@H](NC(=O)c4ccccc4)c4ccccc4)C(C)=C1C3(C)C)[C@]1(OC(C)=O)CO[C@@H]1C[C@@H]2O [PACLITAXEL] | 11 h | 0.384 L/h/kg | 3 L/kg | 7.8 h | 0.12
O=C1c2cccc3c2[C@H](CCC3)CN1[C@@H]1CN2CCC1CC2 [PALONOSETRON] | 39 h | 0.156 L/h/kg | 6.3 L/kg | 40 h | 0.38
Fc1ccc([C@@H]2CCNC[C@H]2COc2ccc3c(c2)OCO3)cc1 [PAROXETINE] | 13 h | 1.08 L/h/kg | 18 L/kg | 17 h | 0.06
CC1(C)S[C@@H]2[C@H](NC(=O)Cc3ccccc3)C(=O)N2[C@H]1C(=O)O [PENICILLIN G] | 0.7 h | 0.414 L/h/kg | 0.24 L/kg | 0.58 h | 0.4
CCCC(C)C1(CC)C(=O)NC(=O)NC1=O (stereo not given) [PENTOBARBITAL] | 22 h | 0.0282 L/h/kg | 0.91 L/kg | 32 h | 0.39
OCCN1CCN(CCCN2c3ccccc3Sc3ccc(Cl)cc32)CC1 [PERPHENAZINE] | 9.4 h | 1.62 L/h/kg | 18 L/kg | 11 h | 0.07
CC(Oc1ccccc1)C(=O)N[C@@H]1C(=O)N2[C@@H]1SC(C)(C)[C@@H]2C(=O)O (stereo not given in full) [PHENETHICILLIN] | 0.91 h | 0.252 L/h/kg | 0.3 L/kg | 1.2 h | 0.25
CC(=O)O[C@H]1C[C@]2(C)CC[C@H]3[C@@H]4C[C@H](N5CC[N+](C)(C)CC5)[C@H](OC(C)=O)[C@@]4(C)CC[C@@H]3[C@@]2(C)C[C@@H]1N1CC[N+](C)(C)CC1.[Br-].[Br-] [PIPERCURONIUM] | 1.9 h | 0.18 L/h/kg | 0.35 L/kg | 1.9 h | 0.98
NS(=O)(=O)c1cc(C(=O)O)cc(N2CCCC2)c1Oc1ccccc1 [PIRETANIDE] | 1.3 h | 0.186 L/h/kg | 0.17 L/kg | 0.91 h | 0.058
CCCNC(C)C(=O)Nc1ccccc1C (stereo not given) [PRILOCAINE] | 1.8 h | 1.74 L/h/kg | 3.7 L/kg | 2.2 h | 0.72
CN(C)CCCN1c2ccccc2Sc2ccccc21 [PROMAZINE] | 7.9 h | 0.84 L/h/kg | 8.1 L/kg | 9.6 h | 0.11
CC(C)c1cccc(C(C)C)c1O [PROPOFOL] | 3.2 h | 2.16 L/h/kg | 4.7 L/kg | 2.2 h | 0.016
CCC(=O)O[C@](Cc1ccccc1)(c1ccccc1)[C@H](C)CN(C)C [PROPOXYPHENE] | 18 h | 0.9 L/h/kg | 12 L/kg | 13.3 h | 0.24
CCCc1cc(=O)[nH]c(=S)[nH]1 [PROPYLTHIOURACIL] | 1.3 h | 0.186 L/h/kg | 0.34 L/kg | 1.8 h | 0.18
CCc1nc(N)nc(N)c1-c1ccc(Cl)cc1 [PYRIMETHAMINE] | 140 h | 0.00312 L/h/kg | 0.43 L/kg | 140 h | 0.095
O=c1c(O)c(-c2ccc(O)c(O)c2)oc2cc(O)cc(O)c12 [QUERCETIN] | 0.6 h | 0.66 L/h/kg | 0.12 L/kg | 0.2 h | 0.009
